Reference: US5151413A (American Home Products Corporation, priority 1991, dated 1992)
Converted amounts (≈) assume the structure as drawn. Where two headings read alike, the source gives them in different places.

Assays:
[1] = tested on: thymocyte proliferation (cells from the thymus of normal BALB/c mice); experiment: comitogen-induced thymocyte proliferation procedure (LAF); type: cell-based; conditions: read-out: LAF IC50
Method: Immunosuppressive activity was evaluated in an in vitro standard pharmacological test procedure to measure lymphocyte proliferation (LAF) and in an in vivo procedure in which the survival time of a pinch skin graft was evaluated.
The comitogen-induced thymocyte proliferation procedure (LAF) was used as an in vitro measure of the immunosuppressive effects of representative compounds. Briefly, cells from the thymus of normal BALB/c mice are cultured for 72 hours with PHA and IL-1 and pulsed with tritiated thymidine during the last six hours. […] Cells are harvested and incorporated; radioactivity is determined. Inhibition of lymphoproliferation is assessed in percent change in counts per minute from non-drug treated controls. […] [formula]

[2] = tested on: pinch skin grafts from male DBA/2 donors transplanted to male BALB/c recipients; experiment: survival time of pinch skin grafts (in vivo); design: species or system BALB/c mice; conditions: intraperitoneal; DBA/2 donors to BALB/c recipients
Method: The recipients are treated with either varying concentrations of cyclosporin A as test control or the test compound, intraperitoneally. Untreated recipients serve as rejection control. The graft is monitored daily and observations are recorded until the graft becomes dry and forms a blackened scab. This is considered as the rejection day.

[3] = tested on: Candida albicans ATCC 38247; experiment: Anti-Candida activity, plate test procedure, strain ATCC 38247; type: cell-based; conditions: ATCC38247, read-out: Anti-Candida Activity, Minimal Inhibitory Concentration (MIC)
Method: (§1) Antifungal activity of the compounds of this invention was measured against 5 strains of Candida albicans using a plate test procedure for measurement of inhibition. The following represents the typical procedure used. Compound to be tested was placed on sterile dried 1/4" plate disks, and allowed to dry. Agar plates were seeded with fungi and allowed to solidify. The impregnated disks were placed on the seeded Agar surface and incubated for the time required for the particular culture. Results are expressed in MIC (μg/ml) to inhibit growth.

[4] = tested on: Candida albicans ATCC 10231; experiment: Anti-Candida activity, plate test procedure, strain ATCC 10231; type: cell-based; conditions: ATCC10231, read-out: Anti-Candida Activity, Minimal Inhibitory Concentration (MIC)
Method: as §1

[5] = tested on: Candida albicans 3669; experiment: Anti-Candida activity, plate test procedure, strain 3669; type: cell-based; conditions: read-out: Anti-Candida Activity, Minimal Inhibitory Concentration (MIC)
Method: as §1

[6] = tested on: Candida albicans ATCC 38246; experiment: Anti-Candida activity, plate test procedure, strain ATCC 38246; type: cell-based; conditions: ATCC38246, read-out: Anti-Candida Activity, Minimal Inhibitory Concentration (MIC)
Method: as §1

[7] = tested on: Candida albicans ATCC 38248; experiment: Anti-Candida activity, plate test procedure, strain ATCC 38248; type: cell-based; conditions: ATCC38248, read-out: Anti-Candida Activity, Minimal Inhibitory Concentration (MIC)
Method: as §1

[8] = tested on: immune response; conditions: cited from earlier work
[9] = tested on: Candida albicans; conditions: especially against Candida albicans; cited from earlier work
[10] = Mus musculus, Thymocyte, thymocytes cultured 72 hours with PHA and IL-1, tritiated thymidine last six hours

Row | Molecule | IC50 ([1]; thymocytes cultured 72 hours with PHA and IL-1, tritiated thymidine last six hours) [nM] | Skin Graft, mean survival days [2] [days] | MIC [3] [µg/mL] | MIC [4] [µg/mL] | IC50 [1, 10] [nM] | MIC [5] [µg/mL] | MIC [6] [µg/mL] | MIC [7] [µg/mL] | inhibition of the immune response (in words) [8] | antifungal activity (in words) [9] | IC50 ([1]; Mus musculus, Thymocyte) [nM]
1 | 31-[O-[2-(trimethylsilyl)ethoxylmethyl]rapamycin [Example 3] | 17.2 |  |  |  |  |  |  |  |  |  | 
2 | CO[C@H]1C[C@@H]2CC[C@@H](C)[C@@](O)(O2)C(=O)C(=O)N2CCCC[C@H]2C(=O)O[C@H]([C@H](C)C[C@@H]2CC[C@@H](O)[C@H](OC)C2)CC(=O)[C@H](C)/C=C(\C)[C@@H](OC(C)(C)OC)[C@@H](OC)C(=O)[C@H](C)C[C@H](C)/C=C/C=C/C=C/1C [Example 1, 31-[O-(1-Methoxy-1-methyl)ethyl]rapamycin] |  | 10.7 | 0.025 (≈ 0.0253 µM) | 0.025 (≈ 0.0253 µM) | 3.2 | 0.4 (≈ 0.406 µM) | 0.4 (≈ 0.406 µM) | 0.1 (≈ 0.101 µM) |  |  | 
3 | CO[C@H]1C[C@@H]2CC[C@@H](C)[C@@](O)(O2)C(=O)C(=O)N2CCCC[C@H]2C(=O)O[C@H]([C@H](C)C[C@@H]2CC[C@@H](OC(C)(C)OC)[C@H](OC)C2)CC(=O)[C@H](C)/C=C(\C)[C@@H](O)[C@@H](OC)C(=O)[C@H](C)C[C@H](C)/C=C/C=C/C=C/1C [Example 2, 42-[O-(1-methoxy-1-methyl)ethyl]rapamycin] |  |  | 0.025 (≈ 0.0253 µM) | 0.025 (≈ 0.0253 µM) | 8.3 | 0.2 (≈ 0.203 µM) | 0.4 (≈ 0.406 µM) | 0.1 (≈ 0.101 µM) |  |  | 
4 | CO[C@H]1C[C@@H]2CC[C@@H](C)[C@@](O)(O2)C(=O)C(=O)N2CCCC[C@H]2C(=O)O[C@H]([C@H](C)C[C@@H]2CC[C@@H](O)[C@H](OC)C2)CC(=O)[C@H](C)/C=C(\C)[C@@H](O)[C@@H](OC)C(=O)[C@H](C)C[C@H](C)/C=C/C=C/C=C/1C [Rapamycin, reference compound] |  |  | 0.03 (≈ 0.0328 µM) | 0.03 (≈ 0.0328 µM) |  | 0.25 (≈ 0.273 µM) | 0.25 (≈ 0.273 µM) | 0.006 (≈ 0.00656 µM) | inhibit the immune response | profound antifungal activity | 3.3 to 5.8
